Measurements as given in US20220226444A1, “FORMULATIONS OF FOSAPREPITANT AND APREPITANT” (Zhuhai Beihai Biotech Co., Ltd., priority 2016, published 2022).
Entries after “also recorded” stand apart in the source; their conditions may differ.

Key:
[1] = cited from earlier work
[2] = pH value of the aqueous solution with or without HSA; assay type: physicochemical; settings: about 25° C.
Protocol: 245.3 mg of fosaprepitant dimeglumine and 0.28 mg of palonosetron hydrochloride were dissolved in methanol, and then methanol was removed from the solution to give a white solid.

[3] = Stability of fosaprepitant in a human serum albumin (HSA) solution, visual clarity; assay type: physicochemical; settings: for appearance of solution initially: 25° C.; for appearance of solution over time: after 1, 2, 3, 4, 6, 8 and 24 hours at 25° C.
Protocol: To 3 different vials containing 25 mg of fosaprepitant dimeglumine each were added 1 ml of 10% HSA solution (w/v), 1 ml of 5% HSA solution (w/v), and 1 ml of 2% HSA solution (w/v), respectively, at 25° C.

[4] = 25 mg in 1 ml of 2% HSA solution (w/v)
[5] = 25 mg in 1 ml of 5% HSA solution (w/v)
[6] = 25 mg in 1 ml of 10% HSA solution (w/v)

Row | SMILES | solubility in acetonitrile ([1]; acetonitrile) | solubility in ethanol ([1]; ethanol) | solubility in isopropyl acetate ([1]; isopropyl acetate) | solubility in water [1] | pH value of the clear aqueous solution ([2]; 24.5 mg in 15 ml of 0.9% saline solution) | pH value of the clear aqueous solution ([2]; 24.5 mg in 15 ml of HSA solution (0.5 ml of 20% HSA + 14.5 ml of 0.9% saline)) | appearance of solution initially [3, 4] | appearance of solution over time [3, 4] | appearance of solution initially [3, 5] | appearance of solution over time [3, 5] | appearance of solution initially [3, 6] | appearance of solution over time [3, 6]
1 | C[C@@H](O[C@H]1OCCN(Cc2n[nH]c(=O)[nH]2)[C@H]1c1ccc(F)cc1)c1cc(C(F)(F)F)cc(C(F)(F)F)c1 [Aprepitant, aprepitant] | slightly soluble | sparingly soluble | sparingly soluble | practicallyinsoluble; also recorded: insoluble |  |  |  |  |  |  |  | 
2 | C[C@@H](O[C@H]1OCCN(Cc2nn(P(=O)(O)O)c(=O)[nH]2)[C@H]1c1ccc(F)cc1)c1cc(C(F)(F)F)cc(C(F)(F)F)c1 [fosaprepitant dimeglumine] |  |  |  |  | 7.70 | 7.15 | clear aqueous solution | stayed clear | clear aqueous solution | stayed clear | clear aqueous solution | stayed clear
3 | C[C@@H](O[C@H]1OCCN(Cc2nc(O)n(P(=O)(O)O)n2)[C@H]1c1ccc(F)cc1)c1cc(C(F)(F)F)cc(C(F)(F)F)c1 [fosaprepitant] |  |  |  | soluble |  |  |  |  |  |  |  | 
